Test results from article PMC2374539, “Anti-tumour effects and pharmacokinetic profile of 17-(5′ -isoxazolyl)androsta-4,16-dien-3-one (L-39) in mice: an inhibitor of androgen synthesis” (British Journal of Cancer, 2000).
pIC50, pKi: −log10 of the molar value. Where “and” joins values, the source holds several entries; their conditions need not be identical. Equal values may be shown once. Entries after “also recorded” stand apart in the source; their conditions may differ.

Key:
[1] = target: T1, 5α-reductase in human prostatic microsomes (Homo sapiens, UniProt P31213); experiment: 5α-Reductase assay in human prostatic (BPH) microsomes; assay type: biochemical
T1 sequence (P31213 1-254): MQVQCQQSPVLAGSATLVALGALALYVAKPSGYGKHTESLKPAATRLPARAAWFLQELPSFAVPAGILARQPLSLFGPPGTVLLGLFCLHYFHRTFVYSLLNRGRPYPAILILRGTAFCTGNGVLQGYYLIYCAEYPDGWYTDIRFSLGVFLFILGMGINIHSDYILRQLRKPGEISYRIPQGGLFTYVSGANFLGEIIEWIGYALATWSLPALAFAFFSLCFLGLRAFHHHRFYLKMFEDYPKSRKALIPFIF
Description: (§1) Prostate cancer is second only to lung cancer as the leading cause of death and is the most prevalent cancer amongst men in the USA and Europe and accounts for about a third of all cancers diagnosed each year in men. In the UK, the incidence of prostate cancer has almost doubled over the last 30 years. Similarly, in 1998, it was estimated that more than 334 500 cases were diagnosed and more than 41 800 men died of the disease in the USA (Dijkman and Debruyne, 1996). The prostate gland is under the influence of androgens and often becomes enlarged in older men. […] Localized prostate cancer is curable and although the metastatic form of the disease is difficult to manage, endocrine therapy does reduce the death rate from the disease and is first-line treatment for all patients. In the testis and adrenals, 17-hydroxylase/C17,20 -lyase converts the C21 steroid precursors to the corresponding C19 andro- gens. […] Both T and DHT stimu- late prostatic growth, although DHT plays a much more important role than T in the organogenesis and homeostasis of the prostate (Wilson, 1996). Current endocrine therapies such as orchidectomy and luteinizing hormone releasing hormone (LHRH) agonists result in reduced androgen production by the testis and are useful in the early stages of prostate cancer. However, these treatment options fail to alter androgen production by the adrenals that may contribute androgen precursors to the prostate. The addition of flutamide, an anti-androgen to inhibit the action of androgens on the prostate, is only partially effective as the disease frequently progresses due to mutations in the androgen receptor, which can utilize flutamide as an agonist. […] Androgen- dependent human prostate cancer xenografts (PC-82) were grown in nude mice and the effects of L-39 (50 mg kg-1 day-1 ) on tumour growth and prostate-specific antigen (PSA) levels were determined after 28 days. […] We also evaluated the pharmacokinetic properties of L-39 in male mice in this investigation. […]

[2] = system: PC-82 human prostate cancer xenografts; experiment: Human PC-82 prostate cancer xenograft model: tumour volume and weight; assay type: in vivo, male athymic Ncr-nu mice
Description: as §1

androgen receptors = system: androgen receptors; design: method as in Long et al, 1999; conditions: L-39 5 μM, R1881 5 nM, LNCaP cultures; ref Long et al, 1999; cited from earlier work
T and DHT concentrations = experiment: Testosterone and DHT RIA in serum and PC-82 tumours of treated mice; assay type: in vivo, male athymic Ncr-nu mice; conditions: 50 mg kg-1 day-1, s.c., 28 days, P < 0.05
Description: as §1, with “1996).” for “1996). Current endocrine therapies such as orchidectomy and luteinizing hormone releasing hormone (LHRH) agonists result in reduced androgen production by the testis and are useful in the early stages of prostate cancer. However, these treatment options fail to alter androgen production by the adrenals that may contribute androgen precursors to the prostate. The addition of flutamide, an anti-androgen to inhibit the action of androgens on the prostate, is only partially effective as the disease frequently progresses due to mutations in the androgen receptor, which can utilize flutamide as an agonist.”

[3] = Gross examination of vital organs, organ and body weights after treatment; assay type: in vivo, male athymic Ncr-nu mice; conditions: 50 mg kg-1 daily, s.c., 28 days
Description: as §1, with “1996).” for “1996). Current endocrine therapies such as orchidectomy and luteinizing hormone releasing hormone (LHRH) agonists result in reduced androgen production by the testis and are useful in the early stages of prostate cancer. However, these treatment options fail to alter androgen production by the adrenals that may contribute androgen precursors to the prostate. The addition of flutamide, an anti-androgen to inhibit the action of androgens on the prostate, is only partially effective as the disease frequently progresses due to mutations in the androgen receptor, which can utilize flutamide as an agonist.”

[4] = system: prostate-specific antigen (PSA) levels; experiment: PSA ELISA in serum and PC-82 tumours of treated mice; assay type: in vivo, male athymic Ncr-nu mice; conditions: 50 mg kg-1 day-1, s.c., 28 days, P < 0.01
Description: as §1, with “1996).” for “1996). Current endocrine therapies such as orchidectomy and luteinizing hormone releasing hormone (LHRH) agonists result in reduced androgen production by the testis and are useful in the early stages of prostate cancer. However, these treatment options fail to alter androgen production by the adrenals that may contribute androgen precursors to the prostate. The addition of flutamide, an anti-androgen to inhibit the action of androgens on the prostate, is only partially effective as the disease frequently progresses due to mutations in the androgen receptor, which can utilize flutamide as an agonist.”

[5] = system: LNCaP human prostate cancer cells; design: method as in Long et al, 1999; conditions: ref Long et al, 1999; cited from earlier work
Solubility in water = assay type: physicochemical
[6] = system: LNCaP human prostatic cells grown as tumours; design: method as in Long et al, 1999; conditions: ref Long et al, 1999; cited from earlier work
[7] = Pharmacokinetic studies after a single s.c. or i.v. bolus dose, plasma HPLC; assay type: in vivo, male Balb/c mice; design: AUC0- / Cmax: unit not given here
Description: Prostate cancer is second only to lung cancer as the leading cause of death and is the most prevalent cancer amongst men in the USA and Europe and accounts for about a third of all cancers diagnosed each year in men. In the UK, the incidence of prostate cancer has almost doubled over the last 30 years. Similarly, in 1998, it was estimated that more than 334 500 cases were diagnosed and more than 41 800 men died of the disease in the USA (Dijkman and Debruyne, 1996). The prostate gland is under the influence of androgens and often becomes enlarged in older men. […] Localized prostate cancer is curable and although the metastatic form of the disease is difficult to manage, endocrine therapy does reduce the death rate from the disease and is first-line treatment for all patients. In the testis and adrenals, 17-hydroxylase/C17,20 -lyase converts the C21 steroid precursors to the corresponding C19 andro- gens. […] Both T and DHT stimu- late prostatic growth, although DHT plays a much more important role than T in the organogenesis and homeostasis of the prostate (Wilson, 1996). Current endocrine therapies such as orchidectomy and luteinizing hormone releasing hormone (LHRH) agonists result in reduced androgen production by the testis and are useful in the early stages of prostate cancer. However, these treatment options fail to alter androgen production by the adrenals that may contribute androgen precursors to the prostate. The addition of flutamide, an anti-androgen to inhibit the action of androgens on the prostate, is only partially effective as the disease frequently progresses due to mutations in the androgen receptor, which can utilize flutamide as an agonist. […] This may be achieved through dual inhibition of 17- hydroxylase/C17,20 -lyase and 5-reductase (Li et al, 1992; Klus et al, 1996). […] Androgen- dependent human prostate cancer xenografts (PC-82) were grown in nude mice and the effects of L-39 (50 mg kg-1 day-1 ) on tumour growth and prostate-specific antigen (PSA) levels were determined after 28 days. […] Pharmacokinetic studies were also conducted in male Balb/c mice. […] (c) 2000 Cancer Research Campaign Keywords: 17-hydroxylase/C17,20 -lyase; 5-reductase; androgens; prostate cancer; pharmacokinetics 74 Received 9 November 1999 Revised 4 February 2000 Accepted 10 February 2000 Correspondence to: AM Brodie British Journal of Cancer (2000) 83(1), 74-82 (c) 2000 Cancer Research Campaign doi: 10.1054/ bjoc.2000.1136, available online at http://www.idealibrary.com on *Present address: Department of Pharmaceutical Sciences, Temple University School of Pharmacy, Philadelphia, PA 19140, USA. Present address: School of Pharmaceutical Sciences, Beijing Medical University, China. Effects of L-39 in vitro and in vivo 75 British Journal of Cancer (2000) 83(1), 74-82 (c) 2000 Cancer Research Campaign advanced prostate cancer (Small et al, 1997). […] 5-Reductase occurs in two isoforms namely, type I and type II. The type II isoenzyme is the predominant form in the human prostate. […] In the present investigation, we describe the effects of L-39, a novel androstene derivative, in vitro and on human prostate cancer xenografts in nude mice. We also evaluated the pharmacokinetic properties of L-39 in male mice in this investigation. […] [21-3 H]-17-hydroxy- pregnenolone ([…] ) was prepared in our laboratory as previously described (Njar et al, 1998). [1,2,6,7-3 H]- Testosterone (96.5 Ci mmol-1 ) and [4-14 C]-dihydrotestosterone (56.5 mCi mmol-1 ) were obtained from Dupont (Boston, MA, USA).

[8] = target: T2, human testicular microsomal 17α-hydroxylase/C17,20-lyase (Homo sapiens, UniProt P05093); experiment: Inhibition of 17α-hydroxylase/C17,20-lyase activity in human testicular microsomes ([3H]-acetic acid release); assay type: biochemical
T2 construct: Testicular and prostatic microsomes were prepared as described previously; from tissue; host or cells: human testis, microsomal fraction
T2 sequence (P05093 1-508): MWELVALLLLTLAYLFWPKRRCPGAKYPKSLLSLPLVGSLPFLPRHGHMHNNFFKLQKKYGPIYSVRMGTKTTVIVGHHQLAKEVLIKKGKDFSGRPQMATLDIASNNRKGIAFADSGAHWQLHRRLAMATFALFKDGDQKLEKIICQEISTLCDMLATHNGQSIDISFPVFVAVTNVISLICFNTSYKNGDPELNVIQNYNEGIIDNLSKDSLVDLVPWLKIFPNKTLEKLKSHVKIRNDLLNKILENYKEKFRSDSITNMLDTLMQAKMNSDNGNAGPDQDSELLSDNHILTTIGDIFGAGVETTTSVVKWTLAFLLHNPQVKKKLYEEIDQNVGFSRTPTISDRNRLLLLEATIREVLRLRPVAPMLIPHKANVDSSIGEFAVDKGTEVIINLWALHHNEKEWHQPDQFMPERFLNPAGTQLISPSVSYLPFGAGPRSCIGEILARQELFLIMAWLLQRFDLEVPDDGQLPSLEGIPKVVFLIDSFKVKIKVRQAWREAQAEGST
Description: as §1

[9] = target: T2, human testicular microsomal 17α-hydroxylase/C17,20-lyase; design: method as in Nnane et al, 1998; conditions: ref Nnane et al, 1998; cited from earlier work
[10] = intravenous 50 mg kg-1, single bolus, mouse plasma
[11] = subcutaneous 50 mg kg-1, single bolus, mouse plasma
[12] = subcutaneous 100 mg kg-1, single bolus, mouse plasma

For `C[C@]12CCC(=O)C=C1CC[C@@H]1[C@@H]2CC[C@]2(C)C(c3ccno3)=CC[C@@H]12` [L-39, 17-(5′-Isoxazolyl)androsta-4,16-dien-3-one], the “type of inhibition of 5α-reductase” value [1] was “competitive”, the pKi ([1]; Lineweaver-Burke slopes, read-out: Ki, inhibition of 5α-reductase) was 7.55 and the pIC50 ([1]; T 40 nM, 10 min, pH 7.4, read-out: IC50, inhibition of 5α-reductase) was 7.48. The “diminution of PC-82 tumour weights” value ([2]; 50 mg kg-1 daily, s.c., 28 days, vs control) was 70%, the “increase in tumour volume over 28 days” value ([2]; 50 mg kg-1 daily, s.c., control increased twofold) was 1.25 fold and the “potency in reducing growth of PC-82 tumour xenografts, compared with other therapies” value ([2]; 50 mg kg-1 day-1, s.c., 28 days) was “to a similar extent as castration or flutamide treatment”. For the same molecule, the “anti-androgenic activity: binding of labelled R1881 to androgen receptors” value (androgen receptors) was “preventing the labelled synthetic androgen R1881 (5 n M) from binding to the androgen receptors”, the “reduction of DHT concentration in PC-82 tumour xenografts” value (T and DHT concentrations) was 94% and the “reduction of T concentration in PC-82 tumour xenografts” value (T and DHT concentrations) was 64%. For the same molecule, the “gross examination of liver, kidney, heart and adrenal gland” value [3] was “did not reveal toxicity”, the “weight of vital organs and body weight” value [3] was “did not change significantly” and the “reduction of tumour PSA levels” value [4] was 50%. For the same molecule, the “proliferation of LNCaP cells in culture” value [5] was “inhibits proliferation”, the solubility in water (Solubility in water) was “poorly soluble in water” and the “growth of LNCaP tumours in male SCID mice” value [6] was “effective at slowing LNCaP human prostatic cells grown in male SCID mice as tumours; also recorded: more effective than flutamide”. For the same molecule, the metabolism in mice ([7]; initial observations, metabolite not characterized) was “metabolized to a more polar metabolite”, the “time after intravenous administration at which L-39 was not detectable in plasma” value ([7]; intravenous 50 mg kg-1) was 4 h and the AUC0- [7, 10] was 14.41. The “CI (total clearance)” value [7, 10] was 3.47 0.14 l h-1 kg-1 and 3.5 l h-1 kg-1, the “Kel (terminal elimination rate constant)” value [7, 10] was 1.05 0.05 h-1 and 1.052 h-1 and the MTR [7, 10] was 1.15 h. For the same molecule, the T1/2 [7, 10] was 0.66 h, the Vd [7, 10] was 3.30 0.13 l kg-1 and the AUC0- [7, 11] was 4.09. The “CI (total clearance)” value [7, 11] was 12.24 0.48 l h-1 kg-1, the Cmax [7, 11] was 1.42 and the Kel [7, 11] was 0.46 0.02 h-1. For the same molecule, the MTR [7, 11] was 2.52 h, the T1/2 [7, 11] was 1.51 h and the Tmax [7, 11] was 0.75 h. For the same molecule, the Vd [7, 11] was 26.73 1.04 l kg-1, the AUC0- [7, 12] was 4.04 and the “CI (total clearance)” value [7, 12] was 24.78 1.0 l h-1 kg-1. For the same molecule, the Cmax [7, 12] was 1.30, the Kel [7, 12] was 0.53 0.03 h-1 and the MTR [7, 12] was 2.41 h. The T1/2 [7, 12] was 1.31 h, the Tmax [7, 12] was 1.0 h and the Vd [7, 12] was 46.80 1.84 l kg-1. The “type of inhibition of 17α-hydroxylase/C17,20-lyase” value [8] was “non-competitive”, the pKi ([8]; Lineweaver-Burke slopes) was 7.66 and the pIC50 ([8]; substrate 17-hydroxypregnenolone, 1 h, pH 7.4) was 7.23.

For `CC(C)(C)NC(=O)[C@H]1CC[C@H]2[C@@H]3CC[C@H]4NC(=O)C=C[C@]4(C)[C@H]3CC[C@]12C` [finasteride], the “activity against 17-hydroxylase/C17,20-lyase” value [9] is given as “no activity”.
